Test results as given in PMC11764585, “Hybridization Design and High-Throughput Screening of Peptides with Immunomodulatory and Antioxidant Activities” (International Journal of Molecular Sciences, 2025).

What was measured:
IL-6 = test: ELISA of IL-6 in RAW 264.7 culture supernatant; type: cell-based, mouse; settings: RAW 264.7 cells, peptide 100 μg/mL, 24 h, vs CON group
Protocol: (§1) RAW 264.7 macrophages (2 × 10^6 cells/well) were seeded in 6-well plates and incubated for 12 h. Hybrid peptides and parent peptides were added to achieve a final concentration of 100 μg/mL, LPS (100 ng/mL) as a positive control. After 24 h of incubation, the culture supernatants were collected, and the levels of TNF-α, IL-6, and IL-1β were measured using ELISA kits according to the manufacturer’s instructions (Solarbio, Beijing, China).

IL-1β = test: ELISA of IL-1β in RAW 264.7 culture supernatant; type: cell-based, mouse; settings: RAW 264.7 cells, peptide 100 μg/mL, 24 h, vs CON group
Protocol: as §1

RAW-Lucia NF-κB cells = test: NF-κB luciferase reporter assay; type: cell-based, mouse; settings: peptide 100 μg/mL, 12 h, luminescence, p < 0.05 vs control group
Excerpt: (§2) The ARE sequences and NF-κB element sequences are referenced in [52, 54]. Based on the sequence information, plasmids pCD-ARE-puro and pCDH-NF-κB-puro were constructed. These plasmids, along with pMD2.G and psPAX2, were transfected into HEK293T cells using a three-plasmid virus packaging system to produce viruses. The virus supernatants were then used to infect IPEC-J2 or RAW 264.7 cells, followed by positive clone screening with Puromycin. For the testing of stable cell lines, tBHQ was used for IPEC-J2-Lucia ARE cells and LPS was used for RAW-Lucia NF-κB cells.
(§3) Candidate peptides (100 μg/mL) were incubated with RAW-Lucia NF-κB or IPEC-J2-Lucia ARE cells (3 × 10⁵ cells/well) in 96-well plates for 12 h. LPS (100 ng/mL) was used as the positive control for the RAW-Lucia NF-κB cells and tBHQ (10 μM) was used as the positive control for the IPEC-J2-Lucia ARE cells. Subsequently, 15 μL of the culture supernatant was mixed with 50 μL of detection buffer (50 mM HEPES, pH 7.0; 50 mM NaCl; 0.05% CHAPS; 10 mM EDTA; and 1 μM coelenterazine). Luminescence was measured using a multimode plate reader, and relative luminescence units (RLUs) were calculated.

TNF-α = test: ELISA of TNF-α in RAW 264.7 culture supernatant; type: cell-based, mouse; settings: RAW 264.7 cells, peptide 100 μg/mL, 24 h, vs CON group
Protocol: as §1

HepG2 cells = test: H2O2-induced oxidative damage model in HepG2 cells; type: cell-based; settings: peptide 100 ng/mL pre-incubation 2 h, then H2O2 650 μM 6 h; for Protective effect against H2O2-induced oxidative damage (result in words): CCK-8 viability, vs model group
Protocol: HepG2 cells (2 × 10^5 cells/well) were seeded into 96-well plates and incubated overnight at 37 °C with 5% CO2. The supernatant was removed, and hybrid or parent peptides were added at a final concentration of 100 ng/mL for 2 h. H2O2 (Sigma-Aldrich, St. louis, MO, USA) was then added to a final concentration of 650 μM and the cells were further incubated for 6 h. Cell viability was assessed using the CCK-8 assay.

IPEC-J2-Lucia ARE cells = test: ARE luciferase reporter assay; type: cell-based; settings: peptide 100 μg/mL, 12 h, luminescence
Excerpt: as §2, §3

Row | Sequence | Expression of IL-6 (result in words) (IL-6) | Expression of IL-1β (result in words) (IL-1β) | Activation of the NF-κB signaling pathway (result in words) (RAW-Lucia NF-κB cells) | Expression of TNF-α (result in words) (TNF-α) | Protective effect against H2O2-induced oxidative damage (result in words) (HepG2 cells) | Stimulation of the ARE pathway (result in words) (IPEC-J2-Lucia ARE cells) | Increase of HepG2 cell viability compared to the H2O2-treated group (HepG2 cells; CCK-8)
1 | YGPSSYGYGEVVEEA [YTb, hybrid peptide of parent peptides Y and Tb] | particularly upregulated | particularly upregulated |  |  |  |  | 
2 | RGPPPRKDVY [RP, hybrid peptide of parent peptides R and P] | significantly upregulated | significantly upregulated | significantly activated | significantly upregulated |  |  | 
3 | KEKKEVVEYGPSSYGYG [TaY, hybrid peptide of parent peptides Ta and Y] | significantly upregulated | significantly upregulated |  | significantly upregulated | significant differences compared to the model group | stimulate the ARE pathway | 
4 | YGPSSYGYGRKDVY [YP, hybrid peptide of parent peptides Y and P] |  |  |  |  |  | stimulate the ARE pathway | 
5 | YGPSSYGYGKEKKEVVE [YTa, hybrid peptide of parent peptides Y and Ta] | significantly increased |  | significantly activated |  | significant differences compared to the model group |  | 12%
6 | RKDVYYGPSSYGYG [PY, hybrid peptide of parent peptides P and Y] |  |  |  |  | significant differences compared to the model group | stimulate the ARE pathway | 
7 | RKDVYRGPPP [PR, hybrid peptide of parent peptides P and R] | significantly upregulated | significantly upregulated | significantly activated | significantly upregulated |  |  | 
8 | EVVEEAYGPSSYGYG [TbY, hybrid peptide of parent peptides Tb and Y] | significantly upregulated | significantly upregulated | significantly activated | significantly upregulated |  |  | 
9 | QLNWDRKDVY [MP, hybrid peptide of parent peptides M and P] | significantly upregulated | significantly upregulated |  | significantly upregulated | significant differences compared to the model group | stimulate the ARE pathway | 
